Values quoted from earlier work in patent publication US11134680B2, “Disinfectant having organic acids” (Bode Chemie GmbH, priority 2015, dated 2021).
One block for each molecule: values may come before it.

Assays:
[1] = tested on: Staphylococcus aureus; conditions: exposure time of 72 hours
[2] = at 20° C.
[3] = tested on: C. albicans; conditions: 72 hours

minimum inhibitory concentration (MIC) [1]: 9%
Compound: CC(=O)O [acetic acid]

pKa [2]: 3.87
Compound: CC(O)C(=O)O (centres unmarked) [lactic acid]
reduction factor ([1]; concentration of 0.3%): > 5 log

Compound: O=C([O-])c1ccccc1.[Na+] [sodium benzoate]
MMC ([3]; >5 log): 1200 µg/mL
reduction (microbicidal action) ([3]; application solution of 0.12%): > 5 log
